Assay results published in ChEMBL document CHEMBL1135665, “Synthesis and biological evaluation of 14-alkoxymorphinans. 17. Highly delta opioid receptor selective 14-alkoxy-substituted indolo- and benzofuromorphinans” (J Med Chem, 2002).

How the values were obtained:
[1] = molecular target: T1, Delta-type opioid receptor (Rattus norvegicus, UniProt P33533); experiment: Binding affinity at delta opioid receptor 1 in rat brain membrane by [3H]DADLE displacement.; format: cell membranes
Mu-type opioid receptor [2] = molecular target: Mu-type opioid receptor (Rattus norvegicus, UniProt P33535); experiment: Binding affinity at mu opioid receptor 1 in rat brain membrane by [3H]DAMGO displacement.; format: cell membranes
[3] = molecular target: T2, Kappa-type opioid receptor (Cavia porcellus, UniProt P41144); experiment: Binding affinity at kappa opioid receptor 1 in guinea pig brain by [3H]U-69593 displacement.
Rattus norvegicus = species on record: Rattus norvegicus; experiment: Selectivity ratio (Ki value towards kappa receptor compared to that of delta receptor).
[4] = molecular target: Opioid receptors; mu & delta (Rattus norvegicus) (UniProt P33533+P33535); experiment: Selectivity ratio (Ki value towards mu receptor compared to that of delta receptor).; format: protein assay
[5] = molecular target: T2, Kappa-type opioid receptor; experiment: The ability of compound to inhibit [35S][…] binding in guinea pig caudate stimulated by U69,593 (Opioid receptor kappa 1) antagonist; format: functional
Mu-type opioid receptor [6] = molecular target: Mu-type opioid receptor (Cavia porcellus, UniProt P97266); experiment: The ability of compound to inhibit [35S][…] binding in guinea pig caudate stimulated by DAMGO (Opioid receptor mu 1) antagonist; format: functional
[7] = molecular target: T1, Delta-type opioid receptor; experiment: Opioid receptor delta 1 binding affinity was determined by inhibition of binding of [3H]DADLE to rat brain membrane

T1 sequence (P33533 whole entry): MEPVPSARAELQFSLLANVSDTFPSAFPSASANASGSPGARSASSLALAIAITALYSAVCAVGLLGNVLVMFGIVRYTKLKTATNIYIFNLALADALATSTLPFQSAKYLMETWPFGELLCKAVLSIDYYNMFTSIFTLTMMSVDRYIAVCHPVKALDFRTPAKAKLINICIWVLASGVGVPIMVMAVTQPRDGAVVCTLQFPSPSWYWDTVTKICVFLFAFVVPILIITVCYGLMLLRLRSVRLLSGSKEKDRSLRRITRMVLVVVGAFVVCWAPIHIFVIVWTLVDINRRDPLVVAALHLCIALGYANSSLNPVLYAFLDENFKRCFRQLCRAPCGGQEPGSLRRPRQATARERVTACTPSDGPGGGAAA
Chain of Opioid receptors; mu & delta (Rattus norvegicus) (P33533 whole entry, looked up): as the sequence (P33533 whole entry) above
Chain of Opioid receptors; mu & delta (Rattus norvegicus) (P33535 whole entry, looked up): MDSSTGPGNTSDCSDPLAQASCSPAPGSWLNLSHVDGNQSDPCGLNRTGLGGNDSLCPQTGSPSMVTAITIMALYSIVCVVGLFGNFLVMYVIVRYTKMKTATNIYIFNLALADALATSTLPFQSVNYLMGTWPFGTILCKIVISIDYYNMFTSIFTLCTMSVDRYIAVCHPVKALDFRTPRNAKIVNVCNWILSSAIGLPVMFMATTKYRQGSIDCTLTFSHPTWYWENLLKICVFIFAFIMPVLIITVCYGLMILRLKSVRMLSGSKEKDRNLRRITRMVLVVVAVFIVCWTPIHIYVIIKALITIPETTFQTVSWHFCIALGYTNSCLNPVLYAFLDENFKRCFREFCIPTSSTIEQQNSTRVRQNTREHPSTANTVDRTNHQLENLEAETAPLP
Chain of Mu-type opioid receptor (Cavia porcellus, UniProt P97266) (P97266 whole entry): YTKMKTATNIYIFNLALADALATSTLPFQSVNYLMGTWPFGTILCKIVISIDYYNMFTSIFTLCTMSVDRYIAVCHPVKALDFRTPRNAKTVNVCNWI
T2 sequence (P41144 whole entry): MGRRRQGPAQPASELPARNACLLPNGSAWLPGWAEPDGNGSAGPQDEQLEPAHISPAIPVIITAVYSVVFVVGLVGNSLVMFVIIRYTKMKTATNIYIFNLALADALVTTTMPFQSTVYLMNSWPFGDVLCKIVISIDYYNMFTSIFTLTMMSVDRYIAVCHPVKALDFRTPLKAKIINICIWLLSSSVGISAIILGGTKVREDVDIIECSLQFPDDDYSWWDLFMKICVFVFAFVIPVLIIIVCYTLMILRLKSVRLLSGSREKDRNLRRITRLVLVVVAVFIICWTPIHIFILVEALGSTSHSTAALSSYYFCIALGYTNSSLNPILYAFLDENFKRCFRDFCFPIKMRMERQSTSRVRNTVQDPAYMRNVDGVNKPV
Chain of Mu-type opioid receptor (Rattus norvegicus, UniProt P33535) (P33535 whole entry): as the sequence (P33535 whole entry, looked up) above

How did the Ki [1] turn out when `C=CCN1CC[C@]23c4c5ccc(O)c4O[C@H]2c2c(c4ccccc4n2C)C[C@@]3(OC)[C@H]1C5` was run?
The Ki was 1.97 nM.

What about the Ki (Mu-type opioid receptor [2]) of the same compound?
The Ki was 731 nM.

And the Ki [3]?
Its Ki is 149 nM.

Which Ki [1] does the source give for `CCCO[C@@]12Cc3c(n(CCC)c4ccccc34)[C@@H]3Oc4c(O)ccc5c4[C@@]31CCN(CC1CC1)[C@@H]2C5` here?
The Ki was 1.28 nM.

And the Selectivity (Rattus norvegicus)?
The Selectivity was 2.4.

And the Ki (Mu-type opioid receptor [2])?
Its Ki is 14.8 nM.

And the Selectivity [4]?
Its Selectivity is 12.

What about the Ki [3] of the same compound?
The Ki was 3.1 nM.

With `C=CCN1CC[C@]23c4c5ccc(O)c4O[C@H]2c2[nH]c4ccccc4c2C[C@@]3(OC)[C@H]1C5` as the compound, how does the Ki [1] read?
The Ki was 3.8 nM.

And the Selectivity (Rattus norvegicus)?
The Selectivity was 61.

And the Ki (Mu-type opioid receptor [2])?
The Ki was 869 nM.

And the Selectivity [4]?
The Selectivity was 229.

And the Ki [3]?
Its Ki is 233 nM.

`CCO[C@@]12Cc3c(oc4ccccc34)[C@@H]3Oc4c(O)ccc5c4[C@@]31CCN(CC1CC1)[C@@H]2C5` was tested. Which Ki [1] did it give?
The Ki was 1.18 nM.

What about the Selectivity (Rattus norvegicus) of the same compound?
The Selectivity was 80.

And the Ki [5]?
Its Ki is > 10000 nM.

What about the Ki (Mu-type opioid receptor [2]) of the same compound?
Its Ki is 185 nM.

What about the Selectivity [4] of the same compound?
The Selectivity was 157.

What about the Ki [3] of the same compound?
Its Ki is 94 nM.

What about the Ki (Mu-type opioid receptor [6]) of the same compound?
The Ki was > 10000 nM.

For `CCO[C@@]12Cc3c([nH]c4ccccc34)[C@]3(C)Oc4c(O)ccc5c4[C@@]31CCN(C)[C@@H]2C5`, which Ki [1] is on record?
The Ki was 3.9 nM.

And the Selectivity (Rattus norvegicus)?
The Selectivity was 186.

What about the Ki (Mu-type opioid receptor [2]) of the same compound?
Its Ki is 515 nM.

What about the Selectivity [4] of the same compound?
The Selectivity was 132.

What about the Ki [3] of the same compound?
Its Ki is 725 nM.

With `C=CCN1CC[C@]23c4c5ccc(O)c4O[C@H]2c2c(c4ccccc4n2Cc2ccccc2Cl)C[C@@]3(OCc2ccccc2Cl)[C@H]1C5` as the compound, how does the Ki [1] read?
The Ki was 151 nM.

And the Selectivity (Rattus norvegicus)?
Its Selectivity is 4800.

What about the Ki (Mu-type opioid receptor [2]) of the same compound?
Its Ki is 1230 nM.

And the Selectivity [4]?
Its Selectivity is 8.2.

And the Ki [3]?
Its Ki is 721000 nM.

What does the source list for `CO[C@@]12Cc3c([nH]c4ccccc34)[C@]3(C)Oc4c(O)ccc5c4[C@@]31CCN(C)[C@@H]2C5`?
Ki [1]: 3.95 nM; Selectivity (Rattus norvegicus): 387; Ki (Mu-type opioid receptor [2]): 58 nM; Selectivity [4]: 15; Ki [3]: 1530 nM

How did the Ki [1] turn out when `C=CCN1CC[C@]23c4c5ccc(O)c4O[C@H]2c2[nH]c4ccccc4c2C[C@@]3(OCC)[C@H]1C5` was run?
The Ki was 2.6 nM.

And the Selectivity (Rattus norvegicus)?
The Selectivity was 134.

What about the Ki [5] of the same compound?
Its Ki is > 10000 nM.

What about the Ki (Mu-type opioid receptor [2]) of the same compound?
Its Ki is 1370 nM.

And the Selectivity [4]?
Its Selectivity is 526.

What about the Ki [3] of the same compound?
Its Ki is 349 nM.

What about the Ki (Mu-type opioid receptor [6]) of the same compound?
The Ki was > 10000 nM.

Which Ki [1] does the source give for `CO[C@@]12Cc3c([nH]c4ccccc34)[C@@H]3Oc4c(O)ccc5c4[C@@]31CCN(CC1CCCCC1)[C@@H]2C5` here?
The Ki was 370 nM.

What about the Selectivity (Rattus norvegicus) of the same compound?
Its Selectivity is 8.8.

And the Ki (Mu-type opioid receptor [2])?
The Ki was 14000 nM.

And the Selectivity [4]?
Its Selectivity is 38.

And the Ki [3]?
The Ki was 3250 nM.

Which results are given for `CCO[C@@]12Cc3c([nH]c4ccccc34)[C@]3(C)Oc4c(O)ccc5c4C31CCN(CC1CC1)[C@@H]2C5`?
Ki [1]: 4.4 nM; Selectivity (Rattus norvegicus): 30; Ki [5]: > 10000 nM; Ki (Mu-type opioid receptor [2]): 340 nM; Selectivity [4]: 77; Ki [3]: 134 nM; Ki (Mu-type opioid receptor [6]): > 10000 nM

With `CCCO[C@@]12Cc3c([nH]c4ccccc34)[C@]3(C)Oc4c(O)ccc5c4[C@@]31CCN(C)[C@@H]2C5` as the compound, how does the Ki [1] read?
Its Ki is 5.3 nM.

What about the Selectivity (Rattus norvegicus) of the same compound?
Its Selectivity is 105.

And the Ki (Mu-type opioid receptor [2])?
The Ki was 30 nM.

And the Selectivity [4]?
Its Selectivity is 5.7.

What about the Ki [3] of the same compound?
Its Ki is 556 nM.

Which results are given for `CC(C)CCO[C@@]12Cc3c([nH]c4ccccc34)[C@]3(C)Oc4c(O)ccc5c4[C@@]31CCN(C)[C@@H]2C5`?
Ki [1]: 12.8 nM; Selectivity (Rattus norvegicus): 99; Ki (Mu-type opioid receptor [2]): 238 nM; Selectivity [4]: 19; Ki [3]: 1260 nM

With `Oc1ccc2c3c1O[C@H]1c4[nH]c5ccccc5c4C[C@@]4(O)[C@@H](C2)N(CC2CC2)CC[C@]314` [NALTRINDOLE] as the compound, how does the Ki [1] read?
Its Ki is 0.81 nM.

What about the Ki [3] of the same compound?
Its Ki is 15.8 nM.

How did the Ki [1] turn out when `CCCO[C@@]12Cc3c([nH]c4ccccc34)[C@]3(C)Oc4c(O)ccc5c4[C@@]31CCN(CC1CC1)[C@@H]2C5` was run?
The Ki was 5.3 nM.

And the Selectivity (Rattus norvegicus)?
Its Selectivity is 95.

What about the Ki (Mu-type opioid receptor [2]) of the same compound?
Its Ki is 555 nM.

What about the Selectivity [4] of the same compound?
The Selectivity was 105.

And the Ki [3]?
Its Ki is 504 nM.

For `CCO[C@@]12Cc3c([nH]c4ccccc34)[C@]3(C)Oc4c(O)ccc5c4[C@@]31CCN(CC1CCC1)[C@@H]2C5`, which Ki [1] is on record?
Its Ki is 12.6 nM.

What about the Selectivity (Rattus norvegicus) of the same compound?
The Selectivity was 30.

What about the Ki (Mu-type opioid receptor [2]) of the same compound?
The Ki was 409 nM.

And the Selectivity [4]?
The Selectivity was 32.

And the Ki [3]?
The Ki was 378 nM.

For `CN1CC[C@]23c4c5ccc(O)c4O[C@H]2c2[nH]c4ccccc4c2C[C@@]3(O)[C@H]1C5` [OXYMORPHINDOLE], which Selectivity (Rattus norvegicus) is on record?
Its Selectivity is 198.

What about the Ki (Mu-type opioid receptor [2]) of the same compound?
The Ki was 171 nM.

What about the Selectivity [4] of the same compound?
Its Selectivity is 86.

What about the Ki [3] of the same compound?
The Ki was 395 nM.

What about the Ki [7] of the same compound?
The Ki was 2 nM.

With `C=CCN1CC[C@]23c4c5ccc(O)c4O[C@H]2c2oc4ccccc4c2C[C@@]3(OCC)[C@H]1C5` as the compound, how does the Ki [1] read?
The Ki was 1.2 nM.

What about the Selectivity (Rattus norvegicus) of the same compound?
The Selectivity was 57.

And the Ki (Mu-type opioid receptor [2])?
The Ki was 22.8 nM.

What about the Selectivity [4] of the same compound?
The Selectivity was 19.

And the Ki [3]?
Its Ki is 68 nM.

How did the Ki [1] turn out when `C=CCO[C@@]12Cc3c(n(CC=C)c4ccccc34)[C@@H]3Oc4c(O)ccc5c4[C@@]31CCN(CC=C)[C@@H]2C5` was run?
The Ki was 7.3 nM.

And the Selectivity (Rattus norvegicus)?
Its Selectivity is 105.

And the Ki (Mu-type opioid receptor [2])?
Its Ki is 1000 nM.

And the Selectivity [4]?
The Selectivity was 137.

And the Ki [3]?
The Ki was 763 nM.

With `CCCN1CC[C@]23c4c5ccc(O)c4O[C@H]2c2c(c4ccccc4n2C)C[C@@]3(OC)[C@H]1C5` as the compound, how does the Ki [1] read?
Its Ki is 11.5 nM.

And the Selectivity (Rattus norvegicus)?
Its Selectivity is 10.

What about the Ki (Mu-type opioid receptor [2]) of the same compound?
Its Ki is 106 nM.

And the Selectivity [4]?
Its Selectivity is 9.2.

What about the Ki [3] of the same compound?
The Ki was 115 nM.
